From patent US20020137929A1, “1 - (3-heterocyclylphenyl) isothiourea, -isourea, -guanidine and -amidine herbicidal agents” (Intellectual Property Department, BASF Aktiengesellschaft, priority 1998, published 2002)

Legend:
SETVI (Foxtail, Green) = experiment: Preemergence herbicidal evaluation; format: in vivo, Setaria viridis; conditions: rated 4-5 weeks after treatment
How it was run: (§1)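 Sown cups got a single aqueous acetone spray of test compound (roughly 0.0156–0.500 kg/ha) before seedlings emerged. Evaluation, 4–5 weeks on, used a 0–9 visual scale covering plant stand, vigor, size, malformation, chlorosis and general appearance compared with controls.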

CYPSE (Flatsedge) [1] = experiment: Postemergence weed control under flooded paddy conditions; format: in vivo, Cyperus serotinus; conditions: postemergence weeds, 3-4 weeks after treatment
How it was run: (§2)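 Herbicidal effect is judged by eye on a 0–9 scale versus control, 3–4 weeks after dosing. Dosing is into flood water kept 1.5–3 cm over the soil, at about 0.0313–0.500 kg/ha in aqueous/acetone 50/50 v/v, on 3–5 cm weeds and 1.5–2.5-leaf rice seedlings.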

CASOB (Sicklepod) = experiment: Postemergence herbicidal evaluation; format: in vivo, Cassia obtusifolia; conditions: postemergence
How it was run: (§3)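 Visual 0–9 rating versus control (stand, vigor, malformation, size, chlorosis, overall appearance), taken four to five weeks post-spray. Two-week-old seedlings received roughly 0.0156–0.500 kg/ha active in acetone/water (50/50) with 0.5% TWEEN 20 via nozzle at 40 psi.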

CYPIR (Rice Flatsedge) = experiment: Postemergence weed control under flooded paddy conditions; format: in vivo, Cyperus iria; conditions: postemergence weeds, 3-4 weeks after treatment
How it was run: as §2

[2] = test system: GLXMAW (Soybean, Williams); experiment: Preemergence herbicidal evaluation; format: in vivo, Glycine max, (L.) Merr. cv Williams; conditions: rated 4-5 weeks after treatment
How it was run: as §1

[3] = test system: SAGPY (Arrowhead (Pygmaea)); experiment: Postemergence weed control under flooded paddy conditions; format: in vivo, Sagittaria pygmaea; conditions: postemergence weeds, 3-4 weeks after treatment
How it was run: as §2

AMBEL (Ragweed, Common) = experiment: Preemergence herbicidal evaluation; format: in vivo, Ambrosia artemisifolia; conditions: rated 4-5 weeks after treatment
How it was run: as §1

ORYSAT (Rice, Tebonnet) [4] = experiment: Preemergence herbicidal evaluation; format: in vivo, Oryza sativa, (L.) Tebonnet; conditions: rated 4-5 weeks after treatment
How it was run: as §1

CYPSE (Flatsedge) [5] = experiment: Preemergence weed control under flooded paddy conditions; format: in vivo, Cyperus serotinus; conditions: rated 3-4 weeks after treatment
How it was run: (§4)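 Visual injury scored 0-9 against control three to four weeks post-treatment, greenhouse-grown. Application: acetone/water (50/50) solutions dosed directly into flood water (1.5-3 cm over silt loam, planted top 0.5 cm), roughly 0.0313 to 0.500 kg/ha active ingredient.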

MOOVA (Monochoria) = experiment: as above; format: in vivo, Monochoria vaginalis; conditions: rated 3-4 weeks after treatment
How it was run: as §4

[6] = test system: CHEAL (Lambsquarters, Common); experiment: Postemergence herbicidal evaluation; format: in vivo, Chenopodium album; conditions: postemergence
How it was run: as §3

ZEAMX (Corn, Field) = experiment: Postemergence herbicidal evaluation; format: in vivo, Zea mays; conditions: postemergence
How it was run: as §3

GALAP (Galium) = experiment: Postemergence herbicidal evaluation; format: in vivo, Galium aparine; conditions: postemergence
How it was run: as §3

ORYSAT (Rice, Tebonnet) [7] = experiment: Postemergence herbicidal evaluation; format: in vivo, Oryza sativa, (L.) Tebonnet; conditions: postemergence
How it was run: as §3

SMILES: CC1SC(=Nc2cc(-n3c(=O)cc(C(F)(F)F)n(C)c3=O)c(F)cc2Cl)N(C)C1=O (stereo not drawn) [Compound 9]
- SETVI preemergence herbicidal rating (SETVI (Foxtail, Green); rate 0.0156 kg/ha): 8.3
- SETVI preemergence herbicidal rating (SETVI (Foxtail, Green); rate 0.0313 kg/ha): 9.0
- SETVI preemergence herbicidal rating (SETVI (Foxtail, Green); rate 0.0625 kg/ha): 9.0
- SETVI preemergence herbicidal rating (SETVI (Foxtail, Green); rate 0.1250 kg/ha): 9.0
- SETVI preemergence herbicidal rating (SETVI (Foxtail, Green); rate 0.2500 kg/ha): 9.0
- Herbicidal rating CYPSE (CYPSE (Flatsedge) [1]; rate 0.0313 kg/ha): 0.0
- Herbicidal rating CYPSE (CYPSE (Flatsedge) [1]; rate 0.0625 kg/ha): 0.0
- Herbicidal rating CYPSE (CYPSE (Flatsedge) [1]; rate 0.1250 kg/ha): 2.0
- Herbicidal rating CYPSE (CYPSE (Flatsedge) [1]; rate 0.2500 kg/ha): 7.0
- CASOB herbicidal rating (CASOB (Sicklepod); rate 0.0156 kg/ha): 0.0
- CASOB herbicidal rating (CASOB (Sicklepod); rate 0.0313 kg/ha): 1.0
- CASOB herbicidal rating (CASOB (Sicklepod); rate 0.0625 kg/ha): 2.0
- CASOB herbicidal rating (CASOB (Sicklepod); rate 0.1250 kg/ha): 4.5
- Herbicidal rating CYPIR (CYPIR (Rice Flatsedge); rate 0.0313 kg/ha): 0.0
- Herbicidal rating CYPIR (CYPIR (Rice Flatsedge); rate 0.0625 kg/ha): 2.0
- Herbicidal rating CYPIR (CYPIR (Rice Flatsedge); rate 0.1250 kg/ha): 4.0
- Herbicidal rating CYPIR (CYPIR (Rice Flatsedge); rate 0.2500 kg/ha): 6.0
- GLXMAW preemergence herbicidal rating ([2]; rate 0.0156 kg/ha): 4.0
- GLXMAW preemergence herbicidal rating ([2]; rate 0.0313 kg/ha): 6.0
- GLXMAW preemergence herbicidal rating ([2]; rate 0.0625 kg/ha): 6.3
- GLXMAW preemergence herbicidal rating ([2]; rate 0.1250 kg/ha): 8.7
- GLXMAW preemergence herbicidal rating ([2]; rate 0.2500 kg/ha): 9.0
- Herbicidal rating SAGPY ([3]; rate 0.0313 kg/ha): 0.0
- Herbicidal rating SAGPY ([3]; rate 0.0625 kg/ha): 0.0
- Herbicidal rating SAGPY ([3]; rate 0.1250 kg/ha): 1.0
- Herbicidal rating SAGPY ([3]; rate 0.2500 kg/ha): 2.0
- AMBEL preemergence herbicidal rating (AMBEL (Ragweed, Common); rate 0.0156 kg/ha): 3.0
- AMBEL preemergence herbicidal rating (AMBEL (Ragweed, Common); rate 0.0313 kg/ha): 6.3
- AMBEL preemergence herbicidal rating (AMBEL (Ragweed, Common); rate 0.0625 kg/ha): 7.3
- AMBEL preemergence herbicidal rating (AMBEL (Ragweed, Common); rate 0.1250 kg/ha): 9.0
- AMBEL preemergence herbicidal rating (AMBEL (Ragweed, Common); rate 0.2500 kg/ha): 9.0
- ORYSAT preemergence herbicidal rating (ORYSAT (Rice, Tebonnet) [4]; rate 0.0156 kg/ha): 5.5
- ORYSAT preemergence herbicidal rating (ORYSAT (Rice, Tebonnet) [4]; rate 0.0313 kg/ha): 8.5
- ORYSAT preemergence herbicidal rating (ORYSAT (Rice, Tebonnet) [4]; rate 0.0625 kg/ha): 7.5
- ORYSAT preemergence herbicidal rating (ORYSAT (Rice, Tebonnet) [4]; rate 0.1250 kg/ha): 9.0
- ORYSAT preemergence herbicidal rating (ORYSAT (Rice, Tebonnet) [4]; rate 0.2500 kg/ha): 9.0
- Herbicidal rating CYPSE (CYPSE (Flatsedge) [5]; 0.0313 kg/ha): 0.0
- Herbicidal rating CYPSE (CYPSE (Flatsedge) [5]; 0.0625 kg/ha): 0.0
- Herbicidal rating CYPSE (CYPSE (Flatsedge) [5]; 0.1250 kg/ha): 2.0
- Herbicidal rating CYPSE (CYPSE (Flatsedge) [5]; 0.2500 kg/ha): 7.0
- Herbicidal rating MOOVA (MOOVA (Monochoria); 0.0313 kg/ha): 9.0
- Herbicidal rating MOOVA (MOOVA (Monochoria); 0.0625 kg/ha): 9.0
- Herbicidal rating MOOVA (MOOVA (Monochoria); 0.1250 kg/ha): 9.0
- Herbicidal rating MOOVA (MOOVA (Monochoria); 0.2500 kg/ha): 9.0
- CHEAL herbicidal rating ([6]; rate 0.0156 kg/ha): 6.5
- CHEAL herbicidal rating ([6]; rate 0.0313 kg/ha): 6.0
- CHEAL herbicidal rating ([6]; rate 0.0625 kg/ha): 9.0
- CHEAL herbicidal rating ([6]; rate 0.1250 kg/ha): 9.0
- ZEAMX herbicidal rating (ZEAMX (Corn, Field); rate 0.0156 kg/ha): 4.8
- ZEAMX herbicidal rating (ZEAMX (Corn, Field); rate 0.0313 kg/ha): 5.0
- ZEAMX herbicidal rating (ZEAMX (Corn, Field); rate 0.0625 kg/ha): 5.5
- ZEAMX herbicidal rating (ZEAMX (Corn, Field); rate 0.1250 kg/ha): 7.0
- GALAP herbicidal rating (GALAP (Galium); rate 0.0156 kg/ha): 1.5
- GALAP herbicidal rating (GALAP (Galium); rate 0.0313 kg/ha): 2.5
- GALAP herbicidal rating (GALAP (Galium); rate 0.0625 kg/ha): 4.5
- GALAP herbicidal rating (GALAP (Galium); rate 0.1250 kg/ha): 7.5
- ORYSAT herbicidal rating (ORYSAT (Rice, Tebonnet) [7]; rate 0.0156 kg/ha): 2.0
- ORYSAT herbicidal rating (ORYSAT (Rice, Tebonnet) [7]; rate 0.0313 kg/ha): 2.3
- ORYSAT herbicidal rating (ORYSAT (Rice, Tebonnet) [7]; rate 0.0625 kg/ha): 3.0
- ORYSAT herbicidal rating (ORYSAT (Rice, Tebonnet) [7]; rate 0.1250 kg/ha): 3.5
